Reference: patent publication US20220202811A1, “TREATMENT FOR RETINOIC ACID RECEPTOR-RELATED ORPHAN RECEPTOR Ɣ (RORƔ)-DEPENDENT CANCERS” (The Regents of the University of California, priority 2019, published 2022)
“Also recorded” adds a separate entry of the source.

Tests used:
[1] = test system: human pancreatic cancer Fast Growing (FG) cells; assay: FG organoid assay; type: cell-based
Method: Similarly, the effects of JTE-151 at different doses were examined on human pancreatic cancer Fast Growing (FG) cells using the organoid assay (FIG. 69). Three doses of JTE-151 were tested: 0.3 μM, 1 μM, and 3 μM.

[2] = test system: non-germline KRAS/p53 organoids; assay: non-germline KRAS/p53 organoid assay; type: cell-based, mouse; conditions: 3 μM, 6 μM, 9 μM JTE-151; 4 days
Method: First, pharmacologic blockade of RORγ using JTE-151 was tested on pancreatic cell organoids as described above. Pancreatic cancer cells derived from two genetically engineered mouse models (GEMMS) were used for the organoid studies (FIGS. 47, 48). […] Then, electroporation was used to promote incorporation of the DNA into the pancreatic cells.
About 4,000 organoids from each of the non-germline and germline mouse models were plated as single cells in multi-well plates, as described above, and treated with JTE-151 for 4 days (FIG. 48). Organoid number and size were analyzed after treatment. […] In the quantification, different doses of JTE-151 were plotted along the horizontal axis, and the volume of organoids was expressed as relative to control along the vertical axis. […] Organoid volume was then analyzed. Different doses of JTE-151 were plotted along the horizontal axis, and the vertical axis represents relative organoid volume to control.

[3] = test system: tumor-bearing KP^f/fC mice; assay: tumor-bearing KP^f/fC mice in vivo (AZD-0284, JTE-151); parameters: species or system mouse
Method: Next, the impact of JTE-151 was tested on tumor-bearing KP^f/fC mice in vivo. FIG. 51 is a schematic of the experimental design. KP^f/fC mice were allowed to develop tumors, then the tumor-bearing mice received vehicle or JTE-151, followed by analysis of the tumors at the end of the experiments. Different doses of JTE-151, i.e., at 30 mg/kg, 90 mg/kg, and 120 mg/kg body weight, were tested.
FIGS. 53-56 show examples of individual experiments where tumor-bearing KP^f/fC mice was treated with either vehicle or 90 mg/kg JTE-151 for 3 weeks in regimens as specified in the figures. For example, in FIGS. 53 and 55, the mice received 90 mg/kg JTE-151 once daily for 3 weeks. In FIG. 54, the mice received 90 mg/kg JTE-151 once daily for 1 week, followed by twice daily for another 2 weeks. At the end of each experiment, tumors were analyzed for different parameters including tumor mass, cell number, EpCAM positivity, CD133 positivity, EpCAM/CD133 positivity, cellularity, and IL-17 level. […] It was not clear whether the initial tumor size of the non-responder mouse was unusually large due to variances between different mice.
Similarly, the anti-cancer effect of JTE-151 was tested on tumor-bearing KP^f/fC mice in vivo at a higher dose of 120 mg/kg (FIGS. 59-61 showing three individual experiments). For each experiment, one mouse was given vehicle treatment, and another mouse was given the JTE-151 regimen as specified in the figures. For example, in FIG. 59, the JTE-151 mouse received 120 mg/kg body weight of JTE-151 for 2 weeks and then 90 mg/kg JTE-151 for 1 week. In the first 1.5 weeks, JTE-151 was given once daily, and in the second 1.5 weeks, JTE-151 was given twice daily. As previously, at the end of each experiment, tumors were analyzed for different parameters including cell number, EpCAM positivity, EpCAM/CD133 positivity, and IL-17 level. In each of FIGS. 59-61, the horizontal axis of each graph represents the target (vehicle vs. JTE-151 mouse), and the vertical axis represents the specified measurement.

PDX1535 xenograft = assay: PDX1535 xenografts in mice; type: in vivo, human; conditions: JTE-151 90 mg/kg once per day
From the text: Finally, the impact of JTE-151 was examined in vivo on mice bearing primary patient-derived pancreatic cancer xenografts (FIGS. 70-78). […] FIGS. 70-72 show 3 rounds of treatment in an experiment using mice bearing PDX1356 xenographs. The horizontal axis of the first panel in each of FIGS. 70-72 represents days of treatment, and the vertical axis represents tumor volume. The horizontal axis of each of the remaining panels represents the target (vehicle vs. JTE-151 mouse), and the vertical axis represents the specified measurement. JTE-151 was given at the regimen as specified in the figures. For example, in the first round (FIG. 70), JTE-151 was given at 90 mg/kg body weight once per day for the first 25 days, then twice per day from day 26 though day 40.
Two other primary patient-derived xenografts, PDX1535 (FIGS. 74 and 75) and PDX1424 (FIGS. 76 and 77), were tested using JTE-151 at 90 mg/kg once per day. […] Considering the reduced tumor mass and cell numbers, the absence of a significant change in tumor volume may be due to necrotic cells that remained for a while post drug treatment.

KP^f/fC tumors = conditions: chimeric wild type versus RORγ recipient mice
[4] = 90 mg/kg JTE-151, 3 weeks, compilation (FIG. 57)
[5] = 120 mg/kg JTE-151 regimen, mice that responded

Cc1ccc(NC(=O)C[C@H](CCC(=O)O)c2noc([C@H]3C[C@@H](CC(C)(C)C)C3)c2C2CC2)c(Cl)c1 [JTE-151, (4S)-6-[(2-chloro-4-methylphenyl)amino]-4-{4-cyclopropyl-5-[cis-3-(2,2-dimethylpropyl)cyclobutyl]isoxazol-3-yl}-6-oxohexanoic acid]
FG organoid growth ([1]; JTE-151 (0.3 μM, 1 μM, 3 μM) in combination with 0.05 nM gemcitabine): significant inhibition
FG organoid growth ([1]; JTE-151 alone at 0.3 μM, 1 μM, and 3 μM): significant inhibition
organoid growth [2]: visibly and significantly impaired; also recorded: inhibited
EpCam+/CD133+ tumor stem cells ([3]; 30 mg/kg JTE-151 once daily for about 3 weeks (FIG. 52)): loss
mice that did not show a response ([3]; 90 mg/kg JTE-151 (FIG. 56)): 1 out of 5
EpCam+/CD133+ tumor stem cells [3, 4]: loss
tumor mass [3, 4]: reduced
tumor mass ([3]; 90 mg/kg JTE-151, 3 weeks, individual experiments (FIGS. 53-55)): reduced
mice that responded to the drug ([3]; 120 mg/kg JTE-151 regimen (FIGS. 59-61)): At least two of the three mice
EpCam+ tumor epithelial cells [3, 5]: loss
EpCam+/CD133+ tumor stem cells [3, 5]: loss
EpCam+/CD133+ tumor stem cells ([3]; JTE-151 at either 30 mg/kg or 90 mg/kg, 3 weeks (FIG. 58)): loss
EpCam+ tumor epithelial cells (PDX1535 xenograft): trend of decreased
EpCam+/CD133+ tumor stem cells (PDX1535 xenograft): trend of decreased
total cell counts (PDX1535 xenograft): trend of decreased
tumor mass (PDX1535 xenograft): trend of decreased
tumor volume or growth rate (PDX1535 xenograft): did not exhibit any significant difference

OC(c1ccc(-c2ccc(CN3CCN(Cc4ccncc4)CC3)cc2)c(F)c1)(C(F)(F)F)C(F)(F)F [SR2211]
impact on tumor growth, cellularity, and stem cell content (KP^f/fC tumors): equivalent
